Consider 13 compounds from patent publication US8614242B2, “1-(heterocyclic carbonyl)-2-substituted pyrrolidines” (Bayer Intellectual Property GmbH, priority 2010, dated 2013).

In one series the test system is Sphaerotheca fuliginea. The series can be described thus: In vivo preventive test on Sphaerotheca fuliginea (cucumber). The note with it: 500 ppm of active ingredient, evaluated 7 days after inoculation.
Series [1] deals with Blumeria graminis f.sp. hordei. The series can be described thus: In vivo preventive test on Blumeria graminis (barley). The note with it: 500 ppm of active ingredient, evaluated 7 days after inoculation. An excerpt:
After the spray coating has been dried, the plants are dusted with spores of Blumeria graminis f.sp. hordei.

Another series deals with Pyrenophora teres. The series can be described thus: In vivo preventive test on Pyrenophora teres (barley). The note with it: 500 ppm of active ingredient, evaluated 7-9 days after inoculation. How it is done:
The plants remain for 48 hours in an incubation cabinet at 22° C. and a relative atmospheric humidity of 100%.

For the next series, the system named is Leptosphaeria nodorum. The series can be described thus: In vivo preventive test on Leptosphaeria nodorum (wheat). The note with it: 500 ppm of active ingredient, evaluated 8 days after inoculation. An excerpt: After the spray coating has been dried, the plants are sprayed with a spore suspension of Leptosphaeria nodorum.
A short description of series [2]: logP by HPLC on reversed-phase column (EEC Directive 79/831 Annex V.A8). Format: physicochemical. The note with it: for logP: HPLC on reversed-phase column (C 18), 40° C., 0.1% aqueous formic acid and acetonitrile, linear gradient 10% to 90% acetonitrile. The protocol:
In table 1, the logP values were determined in accordance with EEC Directive 79/831 Annex V.A8 by HPLC (High Performance Liquid Chromatography) on a reversed-phase column (C 18), using the method described below: Temperature: 40° C.; Mobile phases: 0.1% aqueous formic acid and acetonitrile; linear gradient from 10% acetonitrile to 90% acetonitrile. Calibration was carried out using unbranched alkan-2-ones (comprising 3 to 16 carbon atoms) with known logP values (determination of the logP values by the retention times using linear interpolation between two successive alkanones). lambda-max-values were determined using UV-spectra from 200 nm to 400 nm and the peak values of the chromatographic signals.

The next series relates to Alternaria solani. The series can be described thus: In vivo preventive test on Alternaria solani (tomato). The note with it: 500 ppm of active ingredient, evaluated 7 days after inoculation. How it is done: The plants remain for one day in an incubation cabinet at approximately 22° C. and a relative atmospheric humidity of 100%. Then the plants are placed in an incubation cabinet at approximately 20° C. and a relative atmospheric humidity of 96%.

For a further series, the system named is Septoria tritici. The series can be described thus: In vivo preventive test on Septoria tritici (wheat). The note with it: 500 ppm of active ingredient, evaluated 21 days after inoculation. From the text:
After the spray coating has been dried, the plants are sprayed with a spore suspension of Septoria tritici.

The test system of the next series is Puccinia triticina. The series can be described thus: In vivo preventive test on Puccinia triticina (wheat). The note with it: 500 ppm of active ingredient, evaluated 8 days after inoculation. How it is done: In Vivo Preventive Test on Puccinia Triticina (Wheat)
Solvent: 49 parts by weight of N,N-dimethylacetamide
Emulsifier: 1 part by weight of alkylaryl polyglycol ether
After the spray coating has been dried, the plants are sprayed with a spore suspension of Puccinia triticina.
The test is evaluated 8 days after the inoculation.

Series [3] deals with Fusarium nivale (var. majus). The series can be described thus: In vivo preventive test on Fusarium nivale (wheat). The note with it: 500 ppm of active ingredient, evaluated 5 days after inoculation. From the text:
After the spray coating has been dried, the plants are slightly injured by using a sandblast and afterwards they are sprayed with a conidia suspension of Fusarium nivale (var. majus).

For the next series, the system named is Venturia inaequalis. The series can be described thus: In vivo preventive test on Venturia inaequalis (apple scab). The note with it: 100 ppm of active ingredient, evaluated 10 days after inoculation. How it is done: After the spray coating has dried on, the plants are inoculated with an aqueous conidia suspension of the causal agent of apple scab (Venturia inaequalis) and then remain for 1 day in an incubation cabinet at approximately 20° C. and a relative atmospheric humidity of 100%.

A further series deals with Phakopsora pachyrhizi. The series can be described thus: In vivo protective test on Phakopsora pachyrhizi (soybeans). The note with it: 250 ppm of active ingredient, evaluated 11 days after inoculation. How it is done:
In Vivo Protective Test on Phakopsora Pachyrhizi (Soybeans)
The test is evaluated 11 days after the inoculation.

Another series relates to Cochliobolus miyabeanus. The note with it: rice, protective, 250 ppm of active ingredient, evaluated 4 days after inoculation.
A further series concerns Pyricularia oryzae. It is filed as in vivo. The note with it: rice, protective, 250 ppm of active ingredient, evaluated 5 days after inoculation.
The next series relates to Rhizoctonia solani. The series can be described thus: In vivo protective test on Rhizoctonia solani (rice). The note with it: 250 ppm of active ingredient, evaluated 4 days after inoculation. From the text:
In Vivo Protective Test on Rhizoctonia Solani (Rice)

Description for Cochliobolus miyabeanus: In Vivo Protective Test on Cochliobolus Miyabeanus (Rice)
Solvent: 28.5 parts by weight of acetone
Emulsifier: 1.5 part by weight of polyoxyethylene alkyl phenyl ether
One day after spraying, the plants are inoculated with an aqueous spore suspension of the causal agent of rice brown spot (Cochliobolus miyabeanus). The plants are then placed in an incubator at approximately 25° C. and a relative atmospheric humidity of approximately 100% for 1 day.
The test is evaluated 4 days after the inoculation.

`Cn1nc(C(F)F)c(C(=O)N2CCCC2Cc2cccc(F)c2)c1F` (stereo not shown) [Example 58]: the Efficacy in the series with Sphaerotheca fuliginea worked out at 96%; in [1], 100%; in the series on Pyrenophora teres, 100%; in the series with Leptosphaeria nodorum it was 100%; with Alternaria solani, 89%; in the series on Septoria tritici, 100%. The Efficacy in the series with Puccinia triticina turned out to be 100%; in [3], 100%; in the series on Venturia inaequalis it was 99%. In addition, the logP (in general, a log measure of how a compound divides between an organic and an aqueous phase) in [2] was found to be 2.90.
As for `CCC(c1ccccc1)C1CCCN1C(=O)c1c(C(F)F)nn(C)c1F` (stereo not shown) [Example 53], the Efficacy with Sphaerotheca fuliginea is 93%; in series [1] it was 100%; in the series on Pyrenophora teres, 100%; in the series with Leptosphaeria nodorum, 100%; in the series on Cochliobolus miyabeanus, 95%; in the series on Alternaria solani, 94%. Also, the Efficacy turned out to be 100% in the series with Septoria tritici, 88% with Puccinia triticina, 100% in series [3] and 100% in the series with Venturia inaequalis. The “protection (efficacy)” value with Phakopsora pachyrhizi came to 85%. The same compound returned a logP in [2] of 3.48.
In the case of `Cn1nc(C(F)F)c(C(=O)N2CCCC2Cc2ccccc2)c1F` (stereo not shown) [Example 52], the Efficacy in series [1] worked out at 100%; with Pyrenophora teres it was 100%; in the series on Leptosphaeria nodorum, 100%; in the series with Alternaria solani, 100%; in the series on Septoria tritici, 100%; in the series with Puccinia triticina, 89%. Moreover, the Efficacy (in series [3]; in the series with Venturia inaequalis) was 100% throughout. The lipophilicity (logP) in [2] is 2.84.
In the case of `Cc1ccc(CC2CCCN2C(=O)c2c(C(F)F)nn(C)c2F)cc1` (stereo not shown) [Example 56], the Efficacy with Sphaerotheca fuliginea was 81%; in series [1], 100%; in the series with Pyrenophora teres it was 100%; in the series with Leptosphaeria nodorum, 93%; in the series on Alternaria solani, 94%; in the series on Septoria tritici it was 100%. Moreover, the Efficacy stood at 89% with Puccinia triticina, 100% in [3] and 98% in the series with Venturia inaequalis. In [2], this compound had a logP of 3.23.
Turning to `Cn1nc(C(F)F)c(C(=O)N2CCCC2Cc2c(F)cccc2Cl)c1F` (racemic) [Example 67], the Efficacy in the series on Sphaerotheca fuliginea is 95%; in [1], 100%; in the series on Pyrenophora teres, 100%; with Leptosphaeria nodorum it was 100%; in the series with Alternaria solani, 100%; in the series on Septoria tritici, 100%. In addition, the Efficacy in the series with Puccinia triticina came out at 94%; in series [3], 100%; with Venturia inaequalis, 100%. Further, the logP in series [2] worked out at 3.15.
Regarding `Cn1nc(C(F)F)c(C(=O)N2CCCC2Cc2cccc(Cl)c2)c1F` (racemic) [Example 64], the Efficacy is given as 93% in the series on Sphaerotheca fuliginea; 100% in series [1]; 100% in the series with Pyrenophora teres; 93% in the series on Leptosphaeria nodorum; 100% in the series with Septoria tritici; 100% with Puccinia triticina. Besides, the Efficacy (in series [3]; in the series on Venturia inaequalis) was 100% throughout. In [2], this compound came in with a logP of 3.25.
As to `Cn1nc(C(F)F)c(C(=O)N2CCCC2Cc2ccccc2Cl)c1F` (stereo not shown) [Example 60], the Efficacy was 95% in the series on Sphaerotheca fuliginea; 100% in series [1]; 100% with Pyrenophora teres; 100% in the series on Leptosphaeria nodorum; 100% in the series with Alternaria solani; 100% in the series on Puccinia triticina. In addition, the Efficacy (in series [3]; in the series on Venturia inaequalis) was 100% in each case. This compound came in with a lipophilicity (logP) in series [2] of 3.06.
In the case of `Cn1nc(C(F)F)c(C(=O)N2CCCC2c2cccc(C(F)(F)F)c2)c1F` (stereo not shown) [Example 17], the Efficacy with Sphaerotheca fuliginea stood at 95%; in the series with Pyrenophora teres it was 100%; in the series on Cochliobolus miyabeanus, 98%; in the series with Alternaria solani, 100%; in the series on Pyricularia oryzae, 92%. The logP in series [2] amounted to 3.06.
Consider `Cn1nc(C(F)F)c(C(=O)N2CCC[C@H]2COc2c(Cl)cc(Cl)cc2Cl)c1F` [Example 82], for which the Efficacy in the series with Sphaerotheca fuliginea was 100%; in series [1], 100%; in the series with Rhizoctonia solani, 100%; with Cochliobolus miyabeanus, 93%; in the series on Septoria tritici, 86%; with Puccinia triticina, 100%. Also, the figures for the Efficacy (with Pyricularia oryzae; in [3]) were 98% and 100%, respectively. For the same compound, in [2], the logP is recorded as 4.24.
For the compound `Cc1cc(C)c(CC2CCCN2C(=O)c2c(C(F)F)nn(C)c2F)cc1C` (racemic) [Example 66], the Efficacy in the series on Sphaerotheca fuliginea is listed as 88%; with Pyrenophora teres, 100%; with Rhizoctonia solani, 80%; in the series with Cochliobolus miyabeanus it was 98%; in the series on Alternaria solani it was 100%; in the series on Septoria tritici it was 90%. Besides, the Efficacy with Puccinia triticina is recorded as 100%; with Pyricularia oryzae it was 97%; in series [3], 100%; in the series with Venturia inaequalis, 100%. In addition, the log partition coefficient (logP) in series [2] was 3.81.
For `Cc1cccc(CC2CCCN2C(=O)c2c(C(F)F)nn(C)c2F)c1` (stereo not shown) [Example 55, [3-(difluoromethyl)-5-fluoro-1-methyl-1H-pyrazol-4-yl][2-(3-methyl-benzyl)pyrrolidin-1-yl]methanone], the Efficacy in the series with Sphaerotheca fuliginea was determined as 95%; in series [1] it was 100%; with Pyrenophora teres, 100%; in the series with Leptosphaeria nodorum, 100%; in the series on Septoria tritici, 100%; in the series with Puccinia triticina it was 100%. Further, the Efficacy (in series [3]; with Venturia inaequalis) was 100% in each case. Further, in [2], the chromatographic logP (as a rule, a lipophilicity value derived from retention on a column) worked out at 3.21.
Take `Cc1ccccc1CC1CCCN1C(=O)c1c(C(F)F)nn(C)c1F` (stereo not shown) [Example 54]: the Efficacy with Sphaerotheca fuliginea turned out to be 95%; in [1], 100%; in the series with Pyrenophora teres, 95%; with Leptosphaeria nodorum it was 100%; with Alternaria solani, 94%; in the series with Septoria tritici, 100%. The Efficacy (in the series with Puccinia triticina; in series [3]; in the series with Venturia inaequalis) was 100% each time. The logP in series [2] worked out at 3.13.
As to `Cn1nc(C(F)F)c(C(=O)N2CCCC2Cc2ccccc2F)c1F` (stereo not shown) [Example 57], the Efficacy with Sphaerotheca fuliginea is on record as 94%; in [1], 100%; with Pyrenophora teres, 100%; in the series with Leptosphaeria nodorum it was 100%; in the series on Alternaria solani it was 94%; in the series on Septoria tritici, 100%. Besides, the Efficacy (in the series on Puccinia triticina; in series [3]; in the series on Venturia inaequalis) was 100% in each case. This compound also came in with a logP in [2] of 2.86.
